# Laboratory results reported in article PMC3197640, “Human Engineered Heart Tissue as a Versatile Tool in Basic Research and Preclinical Toxicology” (PLoS ONE, 2011).
# Where two headings read alike, the source gives them in different places.
# Tests used:
# [1] = test system: human engineered heart tissue (hEHT); details: for Threshold concentration at which the compound significantly decreased relaxation velocity / Threshold concentration inducing irregular beating patterns (RR-scatter): human, 30 min
# Protocol: Calcium-concentration response curves were established in DMEM, 1% penicillin/streptomycin, 10 mM HEPES, and 100 µM acetylcysteine with calcium concentrations adjusted to the desired final concentration (0.2–3.0 mmol/L). Equilibration time was 20 minutes. Measurements were performed under spontaneous activity by automated video-optical recording and analysis (customized software, Consulting Team Machine Vision) as previously described. Contractile force F was calculated from the degree of post deflection δ (µm), silicone post length (L) and radius (R) and elastic modulus (E) by the formula F = 3πER^4δ/4L^3 [29]. Contraction- and relaxation velocities were calculated as the average maximal steepness of twitch contraction or relaxation, respectively. Each value represents the mean of all measurable contraction twitches in the recording period of 60 seconds per hEHT.
# EHTs were equilibrated in DMEM, 1% penicillin/streptomycin, 10 mM HEPES, 100 µM acetylcysteine for one hour. […] Isoprenaline and carbachol were used at 100 nM and 10 µM, respectively.
# Intervals between two contractions were determined for all recordings. […] Interval scatter was therefore defined as the length between 10th and 90th percentile (interdecile range, IDR). Statistical difference between groups of biological replicas were determined with Mann-Whitney U Test (*P<0.05).
# hERG channel = details: cited from earlier work
# [2] = test system: hESC-derived cardiomyocytes (EBs and EHTs); experiment: Action potential measurements with sharp microelectrodes (zero current clamp); format: cell-based, human
# [3] = read-out: Published IC50 (hERG), hERG channel assays
smiles,measurement,setting,value
Cc1cccc(CCN2CCC(C(=O)c3ccc(NS(C)(=O)=O)cc3)CC2)n1 [E-4031],Effect on APD,"[2]; 300 nM, P<0.05, n = 4",significant prolongation
CCN(CC)CCNC(=O)c1ccc(N)cc1 [Procainamide],Threshold concentration at which the compound significantly decreased relaxation velocity,[1],100000 nM
same,Threshold concentration inducing irregular beating patterns (RR-scatter),[1],100000 nM
same,IC50,hERG channel; [3],139000 nM
[Ca+2] [calcium],Decrease in force,"[1]; hEHT, lowering calcium from 1.8 mM (baseline) to 0.2 mM",90%
C[N+](C)(C)CCOC(N)=O [carbachol],Effect on isoprenaline-induced changes in frequency and force,"[1]; hEHT, 10 µM, after isoprenaline 100 nM, 0.6 mM calcium",reversed
CC(C)NCC(O)c1ccc(O)c(O)c1 (centres unmarked) [isoprenaline],Effect on beating frequency,"[1]; hEHT, 100 nM, 0.6 mM calcium",positive chronotropic effect
same,Effect on force,"[1]; hEHT, 100 nM, 0.6 mM calcium",trend towards an increase in force (not significant)
COC(=O)C1=C(C)NC(C)=C(C(=O)OCC(C)C)C1c1ccccc1[N+](=O)[O-] (centres unmarked) [nisoldipine],Effect on electrical activity and contractions,"[2]; 1 µM, all spontaneously beating hESC cultures",completely interrupted
NC1=N[C@H](O)[C@H]2[C@H]3O[C@]4(O)O[C@@H]([C@@H](O)[C@@]2(N1)[C@@H]4O)[C@]3(O)CO [tetrodotoxin],Effect on AP upstroke velocity,[2],significant decrease
same,Effect on APD80 and diastolic interval,[2],significant prolongation
